System: 171881-019-R-J1-PDC complex spheroid viability
Test: Anticancer human tumor 171881-019-R-J1-PDC patient-derived invasive breast carcinoma cell line growth inhibition
Settings: for IC50: curve of first compound; for viability, T/C: stronger effect = lower value
Summary of the method: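 Complex spheroids of tumor cells with HUVEC and human MSCs, exposed to iadademstat combined with other agents. Each agent tested in half-log steps from near clinical Cmax (else 10 microM top), DMSO ≤0.25%.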

[1] = second compound 0.1 µM, first compound 0.00949 µM
[2] = second compound 0.1 µM, first compound 0.03 µM
[3] = second compound 0.1 µM, first compound 0.0949 µM
[4] = second compound 0.1 µM, first compound 0.3 µM
[5] = second compound 0.1 µM, first compound 0.949 µM
[6] = second compound 0.1 µM, first compound 3 µM
[7] = second compound 0.316 µM, first compound 0.00949 µM
[8] = second compound 0.316 µM, first compound 0.03 µM
[9] = second compound 0.316 µM, first compound 0.0949 µM
[10] = second compound 0.316 µM, first compound 0.3 µM
[11] = second compound 0.316 µM, first compound 0.949 µM
[12] = second compound 0.316 µM, first compound 3 µM
[13] = second compound 1 µM, first compound 0.00949 µM
[14] = second compound 1 µM, first compound 0.03 µM
[15] = second compound 1 µM, first compound 0.0949 µM
[16] = second compound 1 µM, first compound 0.3 µM
[17] = second compound 1 µM, first compound 0.949 µM
[18] = second compound 1 µM, first compound 3 µM
[19] = second compound 3.16 µM, first compound 0.00949 µM
[20] = second compound 3.16 µM, first compound 0.03 µM
[21] = second compound 3.16 µM, first compound 0.0949 µM
[22] = second compound 3.16 µM, first compound 0.3 µM
[23] = second compound 3.16 µM, first compound 0.949 µM
[24] = second compound 3.16 µM, first compound 3 µM
[25] = second compound 10 µM, first compound 0.00949 µM
[26] = second compound 10 µM, first compound 0.03 µM
[27] = second compound 10 µM, first compound 0.0949 µM
[28] = second compound 10 µM, first compound 0.3 µM
[29] = second compound 10 µM, first compound 0.949 µM
[30] = second compound 10 µM, first compound 3 µM

CCN(c1cc(-c2ccc(CN3CCOCC3)cc2)cc(C(=O)NCc2c(C)cc(C)[nH]c2=O)c1C)C1CCOCC1 + NC1CC1c1ccc(-c2cccc(O)c2)cc1
IC50 (second compound 0.1 µM): 2130 nM
IC50 (second compound 0.316 µM): 2050 nM
IC50 (second compound 1 µM): 1840 nM
IC50 (second compound 3.16 µM): 1510 nM
IC50 (second compound 10 µM): 1180 nM
viability, T/C [1]: 102%
viability, T/C [2]: 109%
viability, T/C [3]: 102%
viability, T/C [4]: 84.8%
viability, T/C [5]: 68%
viability, T/C [6]: 42.7%
viability, T/C [7]: 102%
viability, T/C [8]: 107%
viability, T/C [9]: 105%
viability, T/C [10]: 88.4%
viability, T/C [11]: 66.8%
viability, T/C [12]: 42%
viability, T/C [13]: 99.3%
viability, T/C [14]: 108%
viability, T/C [15]: 96.6%
viability, T/C [16]: 74.9%
viability, T/C [17]: 61%
viability, T/C [18]: 43%
viability, T/C [19]: 96%
viability, T/C [20]: 91.7%
viability, T/C [21]: 90.6%
viability, T/C [22]: 75.2%
viability, T/C [23]: 59%
viability, T/C [24]: 37.6%
viability, T/C [25]: 78.5%
viability, T/C [26]: 77.4%
viability, T/C [27]: 82.2%
viability, T/C [28]: 60.2%
viability, T/C [29]: 55.7%
viability, T/C [30]: 38.8%

CC1COCCN1c1cc(-c2ccnn2C)c2ccnc(-c3ccn[nH]3)c2n1 (stereo not given) + NC1CC1c1ccc(-c2cccc(O)c2)cc1
IC50 (second compound 0.1 µM): 6.07 nM
IC50 (second compound 0.316 µM): 4.76 nM
IC50 (second compound 1 µM): 4.38 nM
IC50 (second compound 3.16 µM): 6.57 nM
IC50 (second compound 10 µM): 4.98 nM
viability, T/C (second compound 0.1 µM, first compound 0.00316 µM): 54.6%
viability, T/C (second compound 0.1 µM, first compound 0.01 µM): 46.5%
viability, T/C (second compound 0.1 µM, first compound 0.0316 µM): 23.1%
viability, T/C (second compound 0.1 µM, first compound 0.1 µM): 9.09%
viability, T/C (second compound 0.1 µM, first compound 0.316 µM): 6.72%
viability, T/C (second compound 0.1 µM, first compound 1 µM): 6.42%
viability, T/C (second compound 0.316 µM, first compound 0.00316 µM): 53.6%
viability, T/C (second compound 0.316 µM, first compound 0.01 µM): 43.5%
viability, T/C (second compound 0.316 µM, first compound 0.0316 µM): 23.6%
viability, T/C (second compound 0.316 µM, first compound 0.1 µM): 9.96%
viability, T/C (second compound 0.316 µM, first compound 0.316 µM): 6.7%
viability, T/C (second compound 0.316 µM, first compound 1 µM): 5.87%
viability, T/C (second compound 1 µM, first compound 0.00316 µM): 51.1%
viability, T/C (second compound 1 µM, first compound 0.01 µM): 47%
viability, T/C (second compound 1 µM, first compound 0.0316 µM): 25.3%
viability, T/C (second compound 1 µM, first compound 0.1 µM): 9.83%
viability, T/C (second compound 1 µM, first compound 0.316 µM): 6.55%
viability, T/C (second compound 1 µM, first compound 1 µM): 5.67%
viability, T/C (second compound 3.16 µM, first compound 0.00316 µM): 56%
viability, T/C (second compound 3.16 µM, first compound 0.01 µM): 46.4%
viability, T/C (second compound 3.16 µM, first compound 0.0316 µM): 23.8%
viability, T/C (second compound 3.16 µM, first compound 0.1 µM): 8.53%
viability, T/C (second compound 3.16 µM, first compound 0.316 µM): 5.95%
viability, T/C (second compound 3.16 µM, first compound 1 µM): 5.45%
viability, T/C (second compound 10 µM, first compound 0.00316 µM): 54.1%
viability, T/C (second compound 10 µM, first compound 0.01 µM): 44%
viability, T/C (second compound 10 µM, first compound 0.0316 µM): 22.4%
viability, T/C (second compound 10 µM, first compound 0.1 µM): 12.8%
viability, T/C (second compound 10 µM, first compound 0.316 µM): 7.13%
viability, T/C (second compound 10 µM, first compound 1 µM): 6.24%

NS(=O)(=O)OCC1CC(n2ccc3c(NC4CCc5ccccc54)ncnc32)CC1O (stereo not given) + NC1CCC(NC2CC2c2ccccc2)CC1
IC50 (second compound 0.1 µM): 41.9 nM
IC50 (second compound 0.316 µM): 42.7 nM
IC50 (second compound 1 µM): 31.1 nM
IC50 (second compound 3.16 µM): 32.7 nM
IC50 (second compound 10 µM): 39 nM
viability, T/C [1]: 109%
viability, T/C [2]: 58.5%
viability, T/C [3]: 29.3%
viability, T/C [4]: 23.5%
viability, T/C [5]: 27.9%
viability, T/C [6]: 23.8%
viability, T/C [7]: 110%
viability, T/C [8]: 58.5%
viability, T/C [9]: 30.5%
viability, T/C [10]: 27.9%
viability, T/C [11]: 27.3%
viability, T/C [12]: 21.7%
viability, T/C [13]: 103%
viability, T/C [14]: 50.7%
viability, T/C [15]: 23.8%
viability, T/C [16]: 23.3%
viability, T/C [17]: 27.7%
viability, T/C [18]: 20.5%
viability, T/C [19]: 109%
viability, T/C [20]: 51.2%
viability, T/C [21]: 31.7%
viability, T/C [22]: 22.8%
viability, T/C [23]: 25.1%
viability, T/C [24]: 19.2%
viability, T/C [25]: 94.6%
viability, T/C [26]: 54.8%
viability, T/C [27]: 33.1%
viability, T/C [28]: 26.1%
viability, T/C [29]: 21.1%
viability, T/C [30]: 16.9%
